Results on 23 molecules are retold here after patent publication US7741362B2, “Somatostatin receptor 1 and/or 4 selective agonists and antagonists” (Siegfried Wurster, priority 2003, dated 2010).

Like-named read-outs stand apart in the source and are kept apart here.

The target in assay [1] is T1, human somatostatin receptor subtype SSTR4 (Homo sapiens, UniProt P31391).
T1 construct: expressed in transfected cells; host or cells: CHO cells (membranes)
The assay can be described thus: Competition binding with 125I-LTT-sst-28, human somatostatin receptor subtype SSTR4. How it is done: (§1) The affinity of the compounds of the invention for the five human somatostatin receptor subtypes (SSTR1, SSTR2, SSTR3, SSTR4, and SSTR5) was determined in competition binding assays with (^125I-Tyr)-[Leu^8,DTrp^22]-somatostatin-28 (^125I-LTT-sst-28). The biological material for these experiments consisted of membranes from Chinese hamster ovary (CHO) cells stably transfected with one of the five human somatostatin receptor subtypes. Membranes (3-20 μg of total protein per sample) and trace amount of ^125I-LTT-sst-28 were incubated in 10 mM Hepes, 1 mM EDTA, 5 mM MgCl2, 5 mg/ml of BSA and 30 μg/ml bacitracin, pH 7.6 with six concentrations of the compounds. Each concentration was run in duplicate. Nonspecific binding was defined by 1 μM somatostatin-14 (sst-14) and corresponded to 5-25% of total binding. After 60 min at room temperature, incubations were terminated by rapid vacuum filtration through GF/B glass fiber filter mats (presoaked at 4° C. in 200 ml of 10 mM Hepes, 1 mM EDTA, 5 mM MgCl2, pH 7.6) and three 5 ml washes with ice-cold wash buffer (20 mM TRIS, 1 mM EDTA, 5 mM MgCl2, pH 7.4). The filters were then dried, impregnated with scintillate and their radioactivity was measured by scintillation counting. The analysis of the experiments was carried out by nonlinear least square curve fitting. Affinity constants (Ki) were calculated from the IC50 values according to the Cheng-Prusoff's equation (Cheng and Prusoff, 1973). Experiments were repeated a minimum of three times.

The target of assay [2] is T2, human somatostatin receptor subtype SSTR2 (Homo sapiens, UniProt P30874).
T2 construct: expressed in transfected cells; host or cells: CHO cells (membranes)
T2 sequence (P30874 whole entry): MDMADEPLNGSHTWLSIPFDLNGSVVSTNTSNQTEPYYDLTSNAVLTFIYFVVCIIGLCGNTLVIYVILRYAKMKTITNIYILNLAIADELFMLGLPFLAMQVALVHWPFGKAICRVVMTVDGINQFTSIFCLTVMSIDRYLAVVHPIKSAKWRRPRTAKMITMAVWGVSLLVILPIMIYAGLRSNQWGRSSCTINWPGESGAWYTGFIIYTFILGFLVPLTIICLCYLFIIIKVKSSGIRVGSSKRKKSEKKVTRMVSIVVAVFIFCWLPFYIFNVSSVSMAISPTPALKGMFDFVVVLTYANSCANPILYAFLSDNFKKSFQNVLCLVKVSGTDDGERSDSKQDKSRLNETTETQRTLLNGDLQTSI
The assay can be described thus: Competition binding with 125I-LTT-sst-28, human somatostatin receptor subtype SSTR2. The settings on record: membranes from CHO cells stably transfected with human SSTR2, Cheng-Prusoff. How it is done:
as §1, with “The analysis of the experiments was carried out by nonlinear least square curve fitting.” left out, “Experiments were repeated a minimum of three times.” left out

For assay [3], the target named is T3, human somatostatin receptor subtype SSTR1 (Homo sapiens, UniProt P30872).
T3 construct: expressed in transfected cells; host or cells: CHO cells (membranes)
T3 sequence (P30872 whole entry): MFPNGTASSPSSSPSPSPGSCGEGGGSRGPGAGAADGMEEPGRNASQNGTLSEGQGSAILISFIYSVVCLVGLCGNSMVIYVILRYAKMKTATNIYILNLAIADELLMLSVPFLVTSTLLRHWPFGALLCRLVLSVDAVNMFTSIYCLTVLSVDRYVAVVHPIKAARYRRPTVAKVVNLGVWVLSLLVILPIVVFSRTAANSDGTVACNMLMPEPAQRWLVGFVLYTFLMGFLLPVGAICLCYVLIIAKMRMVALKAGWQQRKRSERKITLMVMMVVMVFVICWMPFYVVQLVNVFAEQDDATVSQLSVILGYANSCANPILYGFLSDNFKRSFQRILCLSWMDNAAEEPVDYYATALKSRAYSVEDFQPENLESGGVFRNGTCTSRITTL
Briefly: Competition binding with 125I-LTT-sst-28, human somatostatin receptor subtype SSTR1. How it is done:
as §1

In assay [4] the target is T4, human somatostatin receptor subtype SSTR5 (Homo sapiens, UniProt P35346).
T4 construct: expressed in transfected cells; host or cells: CHO cells (membranes)
T4 sequence (P35346 whole entry): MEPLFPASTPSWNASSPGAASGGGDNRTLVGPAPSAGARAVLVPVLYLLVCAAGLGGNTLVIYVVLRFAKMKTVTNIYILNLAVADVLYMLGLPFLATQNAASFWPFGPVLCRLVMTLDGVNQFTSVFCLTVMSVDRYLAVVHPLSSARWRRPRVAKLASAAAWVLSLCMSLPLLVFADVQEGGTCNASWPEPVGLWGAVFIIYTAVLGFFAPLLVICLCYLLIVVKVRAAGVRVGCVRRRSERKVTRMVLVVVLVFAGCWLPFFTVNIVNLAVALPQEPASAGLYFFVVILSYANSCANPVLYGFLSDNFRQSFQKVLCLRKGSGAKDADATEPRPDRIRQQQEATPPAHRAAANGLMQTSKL
The assay can be described thus: Competition binding with 125I-LTT-sst-28, human somatostatin receptor subtype SSTR5. The settings on record: membranes from CHO cells stably transfected with human SSTR5, Cheng-Prusoff. How it is done: as §1, with “The analysis of the experiments was carried out by nonlinear least square curve fitting.” left out, “Experiments were repeated a minimum of three times.” left out

Assay [5] concerns the target T5, human somatostatin receptor subtype SSTR3 (Homo sapiens, UniProt P32745).
T5 construct: expressed in transfected cells; host or cells: CHO cells (membranes)
The assay can be described thus: Competition binding with 125I-LTT-sst-28, human somatostatin receptor subtype SSTR3. The note with it: membranes from CHO cells stably transfected with human SSTR3, Cheng-Prusoff. How it is done: as §1, with “The analysis of the experiments was carried out by nonlinear least square curve fitting.” left out, “Experiments were repeated a minimum of three times.” left out

Where [6] appears, read: same protocol, less than 300 nM, read-out: Ki for SSTR4 (bound).
[7] abbreviates: membranes from CHO cells stably transfected with human SSTR4, 125I-LTT-sst-28, Cheng-Prusoff, read-out: Ki (SSTR4).
Setting [8] is: same protocol, less than 300 nM, read-out: Ki for SSTR1 (bound).

As usually defined, the Ki is a dissociation constant, usually derived from enzyme kinetics or from competition with a known ligand.

T1 sequence (P31391 whole entry): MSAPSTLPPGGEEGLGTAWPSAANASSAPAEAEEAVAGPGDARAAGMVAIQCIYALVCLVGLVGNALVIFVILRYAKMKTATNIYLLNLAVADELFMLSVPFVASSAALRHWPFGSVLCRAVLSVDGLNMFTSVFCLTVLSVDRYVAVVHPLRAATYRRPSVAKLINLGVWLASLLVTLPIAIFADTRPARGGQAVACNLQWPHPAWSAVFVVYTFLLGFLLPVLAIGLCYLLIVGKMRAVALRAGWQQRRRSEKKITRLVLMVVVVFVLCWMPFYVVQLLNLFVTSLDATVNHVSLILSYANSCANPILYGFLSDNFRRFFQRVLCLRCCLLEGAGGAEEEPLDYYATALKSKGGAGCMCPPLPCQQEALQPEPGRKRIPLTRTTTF
T5 sequence (P32745 whole entry): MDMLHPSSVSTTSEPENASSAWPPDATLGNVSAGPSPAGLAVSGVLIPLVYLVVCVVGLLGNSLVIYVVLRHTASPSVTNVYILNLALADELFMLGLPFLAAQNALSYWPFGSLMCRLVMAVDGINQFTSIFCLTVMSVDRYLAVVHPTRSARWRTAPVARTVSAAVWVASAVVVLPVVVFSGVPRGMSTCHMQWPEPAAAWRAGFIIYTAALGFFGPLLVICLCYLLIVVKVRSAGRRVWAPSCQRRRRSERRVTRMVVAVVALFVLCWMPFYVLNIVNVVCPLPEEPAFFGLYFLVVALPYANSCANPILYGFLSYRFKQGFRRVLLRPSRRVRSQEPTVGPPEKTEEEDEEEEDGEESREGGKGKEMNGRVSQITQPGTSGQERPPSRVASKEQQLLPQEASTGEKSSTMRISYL

With `Cc1ccc(S(=O)(=O)N[C@@H](CCN)C(=O)NC2CCCCC2)c2ccccc12` [Compound 1, 4-amino-N-cyclohexyl-(S)-2-(N′-(4-methyl-1-naphthalenesulfonyl)amino)butanamide], the Ki in assay [1] (setting [6]) was below 300 nM.
As for `Cc1ccc(S(=O)(=O)N[C@@H](CCN)C(=O)N[C@@H](Cc2ccccc2)C(N)=O)c2ccccc12` [Compound 2, 4-amino-N-(S)-1-carbamoyl-2-phenylethyl-(S)-2-(N′-(4-methyl-1-naphthalenesulfonyl)amino)butanamide], the Ki was above 5000 nM in assay [2] and 1.2 ± 0.4 nM in assay [1] (setting [7]).
For the molecule `Cc1ccc(S(=O)(=O)N[C@@H](CCNC(C)C)C(=O)NCc2ccccc2)c2ccccc12` [Compound 3, N-benzyl-4-(N′-isopropyl)amino-(S)-2-(N″-(4-methyl-1-naphthalenesulfonyl)amino)butanamide], the Ki in assay [1] (setting [6]) and in assay [3] (setting [8]) was below 300 nM in each case.
In the case of `Cc1ccc(S(=O)(=O)N[C@@H](CCNC(=N)N)C(=O)NCc2ccccc2)c2ccccc12` [Compound 4, N-benzyl-4-guanidino-(S)-2-(N′-(4-methyl-1-naphthalenesulfonyl)amino)butanamide], the Ki in assay [1] (setting [6]) was below 300 nM.
`Cc1ccc(S(=O)(=O)N[C@@H](CCCNC(=N)N)C(=O)N[C@@H](Cc2ccccc2)C(N)=O)c2ccccc12` [Compound 5, N-((S)-1-carbamoyl-2-phenylethyl)-5-guanidino-(S)-2-(N′-(4-methyl-1-naphthalenesulfonyl)amino)pentanamide]: the Ki in assay [1] (setting [6]) and in assay [3] (setting [8]) was below 300 nM throughout.
Turning to `Cc1ccc(S(=O)(=O)N[C@@H](CCCNC(=N)N)C(=O)N[C@H](C(N)=O)C(c2ccccc2)c2ccccc2)c2ccccc12` [Compound 6, N-((S)-1-carbamoyl-2,2-diphenylethyl)-5-guanidino-(S)-2-(N′-(4-methyl-1-naphthalenesulfonyl)amino)pentanamide], the Ki in assay [1] (setting [6]) and in assay [3] (setting [8]) was below 300 nM in each case.
As to `Cc1ccc(S(=O)(=O)N[C@@H](CCCN)C(=O)N[C@@H](Cc2ccccc2)C(N)=O)c2ccccc12` [Compound 7, 5-amino-N-((S)-1-carbamoyl-2-phenylethyl)-(S)-2-(N′-(4-methyl-1-naphthalenesulfonyl)amino)pentanamide], the Ki in assay [1] (setting [6]) and in assay [3] (setting [8]) was below 300 nM in each case.
As to `CCc1ccc(S(=O)(=O)N[C@@H](CCN)C(=O)N[C@@H](Cc2ccccc2)C(N)=O)c2ccccc12` [Compound 8, 4-amino-N-((S)-1-carbamoyl-2-phenylethyl)-(S)-2-(N′-(4-ethyl-1-naphthalenesulfonyl)amino)butanamide], the Ki in assay [1] (setting [6]) was below 300 nM.
Still for that read-out and setting: in the case of `Cc1ccc(S(=O)(=O)N[C@@H](CCN)C(=O)N[C@H](C(N)=O)C(c2ccccc2)c2ccccc2)c2ccccc12` [Compound 9, 4-amino-N-((S)-1-carbamoyl-2,2-diphenylethyl)-(S)-2-(N′-(4-methyl-1-naphthalenesulfonyl)amino)butanamide] it was below 300 nM; in that of `NCC[C@H](NS(=O)(=O)c1cccc2ccccc12)C(=O)N[C@@H](Cc1ccccc1)C(N)=O` [Compound 10, 4-amino-N-((S)-1-carbamoyl-2-phenylethyl)-(S)-2-(N′-(1-naphthalenesulfonyl)amino)butanamide], below 300 nM.
Turning to `Cc1ccc(S(=O)(=O)N[C@@H](CCNC2CCCCC2)C(=O)NCc2ccccc2)c2ccccc12` [Compound 11, N-benzyl-4-N′-cyclohexylamino-(S)-2-(N″-(4-methyl-1-naphthalenesulfonyl)amino)butanamide], the Ki in assay [3] (setting [8]) is below 300 nM.
With `CCCCOc1ccc(S(=O)(=O)NC(CCCNC(=N)N)C(=O)NC(Cc2ccccc2)C(N)=O)cc1` [Compound 12, (S)-2-N-(4-butoxybenzenesulfonyl)amino-N′-((S)-1-carbamoyl-2-phenylethyl)-5-guanidinopentanamide], in assay [3] (setting [8]), the Ki was below 300 nM.
Regarding `Cc1ccc(S(=O)(=O)N[C@@H](CCN)C(=O)N[C@H](C(N)=O)C(C)C)c2ccccc12` [Compound 13, 4-amino-N-((S)-1-carbamoyl-2-methylpropyl)-(S)-2-(N′-(4-methyl-1-naphthalenesulfonyl)amino)butanamide], the Ki in assay [1] (setting [6]) was below 300 nM.
As for `CCc1cc(Br)ccc1S(=O)(=O)NC(CCN)C(=O)NC(Cc1ccccc1)C(N)=O` [Compound 14, 4-amino-(S)-2-N-(4-bromo-2-ethylbenzenesulfonyl)-amino-N′-((S)-1-carbamoyl-2-phenylethyl)butanamide], the Ki in assay [1] (setting [6]) was below 300 nM.
For `N=C(N)NCCC[C@H](NS(=O)(=O)c1ccc2ccccc2c1)C(=O)N[C@@H](Cc1ccccc1)C(N)=O` [Compound 15, N-((S)-1-carbamoyl-2-phenylethyl)-5-guanidino-(S)-2-(N′-(2-naphthalenesulfonyl)amino)pentanamide], the Ki in assay [3] (setting [8]) was below 300 nM.
Turning to `N=C(N)NCCC[C@H](NS(=O)(=O)c1cccc(-c2ccccc2)c1)C(=O)N[C@@H](Cc1ccccc1)C(N)=O` [Compound 16, N-((S)-1-carbamoyl-2-phenylethyl)-5-guanidino-(S)-2-(N′-(3-phenylbenzenesulfonyl)amino)pentanamide], the Ki in assay [1] (setting [6]) was below 300 nM.
Take `Cc1ccc(S(=O)(=O)NC(CCCNC(C)C)C(=O)NC2CCCc3ccccc32)c2ccccc12` [Compound 17, 5-N-isopropylamino-(S)-2-N′-(4-methyl-1-naphthalene-sulfonyl)amino-N″-(1,2,3,4-tetrahydro-1-naphthyl)-pentanamide]: the Ki is above 10000 nM in assay [4]; above 10000 nM in assay [2]; above 2000 nM in assay [5]; 84 ± 23 nM in assay [1] (setting [7]); 1 ± 0.4 nM in assay [3] (membranes from CHO cells stably transfected with human SSTR1, 125I-LTT-sst-28, Cheng-Prusoff, read-out: Ki (SSTR1)).
Consider `Cc1ccc(S(=O)(=O)NC(CCN)C(=O)NC2CCCc3ccccc32)c2ccccc12` [Compound 18, 4-amino-(S)-2-N-(4-methyl-1-naphthalenesulfonyl)-amino-N′-(1,2,3,4-tetrahydro-1-naphthyl)butanamide], for which the Ki in assay [3] (setting [8]) is below 300 nM.
For the molecule `Cc1ccc(S(=O)(=O)N[C@@H](CCCN)C(=O)NC2(C(N)=O)Cc3ccccc3C2)c2ccccc12` [Compound 19, 5-amino-N-(2-(2-carbamoyl)indanyl)-(S)-2-(N′-(4-methyl-1-naphthalenesulfonyl)amino)pentanamide], the Ki in assay [1] (setting [6]) is below 300 nM.
For the molecule `Cc1ccc(S(=O)(=O)N[C@@H](CCCN)C(=O)NCCc2c[nH]c3ccccc23)c2ccccc12` [Compound 20, 5-amino-N-(2-(1H-indol-3-yl)ethyl)-(S)-2-(N′-(4-methyl-1-naphthalenesulfonyl)amino)pentanamide], the Ki in assay [1] (setting [6]) was below 300 nM.
As for `Cc1ccc(S(=O)(=O)N[C@@H](CCCN)C(=O)N[C@@H](Cc2cccc(Cl)c2)C(N)=O)c2ccccc12` [Compound 21, 5-amino-N-((S)-1-carbamoyl-2-(3-chlorophenyl)ethyl)-(S)-2-(N′-(4-methyl-1-naphthalenesulfonyl)amino)-pentanamide], the Ki in assay [3] (setting [8]) is below 300 nM.
As for `Cc1ccc(S(=O)(=O)NC(CCCN)C(=O)NC2(C(N)=O)CCc3ccccc3C2)c2ccccc12` [Compound 22, 5-amino-N-(2-(2-carbamoyl)-1,2,3,4-tetrahydronaphthyl)-(S)-2-(N′-(4-methyl-1-naphthalenesulfonyl)amino)-pentanamide], the Ki in assay [3] (setting [8]) was below 300 nM.
With `CNCC[C@H](NS(=O)(=O)c1ccc(C)c2ccccc12)C(=O)NCCc1cccc(Cl)c1` [Compound 23, N-(2-(3-chlorophenyl)ethyl)-4-N′-methylamino-(S)-2-(N″-(4-methyl-1-naphthalenesulfonyl)amino)-butanamide], the Ki in assay [3] (setting [8]) is below 300 nM.
